The values that follow come from patent US20250059187A1, “COVALENTLY BINDING INHIBITORS OF G12S, G12D AND/OR G12E MUTANTS OF K-RAS GTPASE” (The Regents of the University of California, priority 2021, published 2025).

Assay [1] addresses T1, K-Ras G12E (Homo sapiens, UniProt P01116, G12E).
T1 construct: human K-Ras (G12E, aa 1-169); 6xHis tag + TEV cleavage site (N, cleaved yes); made in house; host or cells: E. coli BL21(DE3)
Kind of assay: Covalent modification of test protein after incubation with compound. It is filed as binding. Particulars: 24-h incubation with 100 μM compound at 23° C. at pH 7.5.

The target of assay [2] is T2, K-Ras G12D (Homo sapiens, UniProt P01116, G12D).
T2 construct: human K-Ras (G12D, aa 1-169); 6xHis tag + TEV cleavage site (N, cleaved yes); made in house; host or cells: E. coli BL21(DE3)
The description is as above. As to conditions: 24-h incubation with 100 μM compound at 23° C. at pH 7.5. The format is binding.

Assay [3] addresses T3, wild type K-Ras (Homo sapiens, UniProt P01116).
T3 construct: human K-Ras (wildtype, aa 1-169); 6xHis tag + TEV cleavage site (N, cleaved yes); made in house; host or cells: E. coli BL21(DE3)
The assay is described as above. The format is binding. As to conditions: 24-h incubation with 100 μM compound at 23° C. at pH 7.5.

The target in assay [4] is T4, interaction between Raf-RBD and K-Ras(G12D) (Homo sapiens, UniProt P01116, G12D).
T4 construct: human K-Ras (G12D, aa 1-169); 6xHis tag + TEV cleavage site (N); made in house; host or cells: E. coli BL21(DE3) for K-Ras
Nature of the assay: Time-resolved fluorescence energy transfer assay, Raf-RBD and K-Ras(G12D). As to conditions: dose-dependent. The format is biochemical.

The target in assay [5] is T2, K-Ras G12D. Kind of assay: Differential scanning fluorimetry of K-Ras(G12D) and its covalent adducts. It is filed as binding. As for the experimental part:
The protein of interest was diluted with SEC Buffer [20 mM HEPES 7.5, 150 mM NaCl, 1 mM MgCl2] to 8 μM. This solution was dispensed into wells of a white 96-well PCR plate in triplicate (25 μL/well). Fluorescence was measured at 0.5-° C. temperature intervals every 30 s from 25° C. to 95° C. on a Bio-Rad CFX96 qPCR system using the FRET setting. Each data set was normalized to the highest fluorescence and the normalized fluorescence reading was plotted against temperature in GraphPad Prism 8.0. Tm values were determined as the temperature(s) corresponding to the maximum(ma) of the first derivative of the curve.

A further assay concerns the target T5, K-Ras(G13D) (Homo sapiens, UniProt P01116, G13D).
T5 construct: human K-Ras (G13D, aa 1-169); 6xHis tag + TEV cleavage site (N, cleaved yes); made in house; host or cells: E. coli BL21(DE3)
Kind of assay: Covalent modification of recombinant K-Ras(G13D) by whole-protein mass spectrometry. Particulars: 10 μM, 23° C., after 1 h. It is filed as binding. As for the experimental part:
(§1) Test compounds were prepared as 100× stock solutions in DMSO. K-Ras proteins were diluted with SEC Buffer (20 mM HEPES 7.5, 150 mM NaCl, 1 mM MgCl2) to 400 nM or 1 μM. In a typical reaction, 0.5 μL 100× compound stock was mixed with 50 μL diluted K-Ras protein, and the resulting mixture was incubated for the desired amount of time. The extent of modification was assessed by electrospray mass spectrometry using a Waters Xevo G2-XS system equipped with an Acquity UPLC BEH C4 1.7 μm column. The mobile phase was a linear gradient of 5-95% acetonitrile/water+0.05% formic acid. For kinetic measurements, a 2× compound solution was first prepared in SEC Buffer, which was then mixed with 400 nM K-Ras(G12D) protein at 1:1 (v/v) ratio. Injection time stamps were used to calculate elapsed time.

A further assay has as its target K-Ras(G12S) (Homo sapiens, UniProt P01116, G12S). Nature of the assay: Covalent modification of recombinant K-Ras(G12S) by whole-protein mass spectrometry. It is filed as binding. Also on record: human K-Ras (G12S, aa 1-169); 6xHis tag + TEV cleavage site (N, cleaved yes); made in house; host or cells: E. coli BL21(DE3). As to conditions: 10 μM compound, 23° C. In outline:
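Recombinant K-Ras diluted to 400 nM or 1 μM in 20 mM HEPES pH 7.5, 150 mM NaCl, 1 mM MgCl2 and incubated with compound added from 100× DMSO stock. Modification extent measured by electrospray whole-protein mass spectrometry; kinetics used 1:1 mixing with 400 nM protein and injection time stamps for elapsed time.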

Assay [6] deals with T6, interaction between Raf-RBD and wildtype K-Ras (Homo sapiens, UniProt P01116).
T6 construct: human K-Ras (wildtype, aa 1-169); 6xHis tag + TEV cleavage site (N); made in house; host or cells: E. coli BL21(DE3) for K-Ras
Nature of the assay: Time-resolved fluorescence energy transfer assay, Raf-RBD and wildtype K-Ras. It is filed as biochemical.

Assay [7] concerns the target T7, Raf-RBD / K-Ras(G12D)·GppNHp (Homo sapiens, UniProt P01116, G12D).
T7 construct: human K-Ras (G12D, aa 1-169); 6xHis tag + TEV cleavage site (N); made in house; host or cells: E. coli BL21(DE3) for K-Ras
Kind of assay: Biolayer interferometry, Raf-RBD binding of the K-Ras(G12D)·GppNHp adduct. As to conditions: compared to unmodified K-Ras(G12D)·GppNHp. On the technique in general: BLI is a label-free optical method that tracks binding on a fibre tip over time.

Assay [8] deals with T2, K-Ras G12D. Nature of the assay: Covalent modification of recombinant K-Ras(G12D) by whole-protein mass spectrometry. Particulars: 10 μM, 23° C. It is filed as binding. The procedure:
as §1

In assay [9] the target is T3, wild type K-Ras. Nature of the assay: Covalent modification of recombinant wild-type K-Ras by whole-protein mass spectrometry. The format is binding. As to conditions: 10 μM, 23° C., after 1 h.
In assay [10] the test system is KRAS G12D mutation cancer cell lines. Nature of the assay: Growth inhibition of KRAS G12D cancer cell lines. It is filed as cell-based. As for the experimental part:
Cells were seeded into 96-well white flat bottom plates (1,000 cells/well) (Corning) and incubated overnight. Cells were treated with the indicated compounds in a nine-point threefold dilution series (100 μL final volume) and incubated for 72 h. Cell viability was assessed using a commercial CellTiter-Glo (CTG) luminescence-based assay (Promega). Briefly, the 96-well plates were equilibrated to room temperature before the addition of diluted CTG reagent […] (1:4 CTG reagent:PBS). Plates were placed on an orbital shaker for 30 min before recording luminescence using a Spark 20M (Tecan) plate reader.

Assay [11] has as its target T1, K-Ras G12E. Nature of the assay: Covalent modification of recombinant K-Ras(G12E) by whole-protein mass spectrometry. The format is binding. Particulars: 10 μM, 23° C. The procedure:
as §1

Assay [12] concerns the target T2, K-Ras G12D. Kind of assay: Stability of the adduct between K-Ras(G12D) and the compound.
The target in another assay is T8, K-Ras(G12D)·GDP (Homo sapiens, UniProt P01116, G12D).
T8 construct: human K-Ras (G12D, aa 1-169); 6xHis tag + TEV cleavage site (N, cleaved yes); made in house; host or cells: E. coli BL21(DE3)
Kind of assay: Detection of covalent modification of K-Ras(G12D) by tandem mass spectrometry. As to conditions: 1 mM or 10 mM, 23° C., 1 h. It is filed as binding. As for the experimental part:
K-Ras(G12D) protein (1 μM, 100 μL) in PBS 7.4 was treated with β-propiolactone (1 mM or 10 mM) at 23° C. for 1 h. The reaction buffer was exchanged into Digestion Buffer (20 mM Tris 8.0, 2 mM CaCl2)) using a Zeba 0.5-mL desalting column (7K MWCO, Thermo Scientific). 80 μL of the resulting protein solution was mixed with 2 μL 200 mM DTT. The mixture was heated at 56° C. for 30 min. After cooling to 23° C., 4 μL 200 mM iodoacetamide was added. After 15 min at 23° C., 2.1 μL 200 mM DTT was added. After an additional 5 min, 500 ng trypsin was added to the mixture, and the samples were incubated at 37° C. overnight. 5 μL 10% formic acid was added to stop the digestion (final formic acid concentration: 0.5% v/v). The tryptic peptides were enriched and desalted using OMIX C18 tips (Agilent) following the manufacturer's instructions. Peptides (0.5% of total) were resolved on an Easy-Spray nano-HPLC column (Thermo Fisher ES800A, 150 mm length, […], […]) over a 54-min gradient of 2-37% acetonitrile-water+0.1% formic acid and analyzed by a Q-Exactive hybrid quadrupole-orbitrap mass spectrometer (MS1 resolution 70,000, AGC target: 3e6, range: 350-1500 m/z; MS2 resolution 17,500, AGC target: 5e4, max injection time: 120 ms, Top 10, NCE: 25%, dynamic exclusion: 15 s). […]

With `C#Cc1cccc2cccc(-c3ncc4c(N5C[C@H]6CC[C@@H](C5)N6C(=O)C5CC(=O)O5)nc(OCC56CCCN5CCC6)nc4c3F)c12` (mixture of isomers) [(RS)-1], the “% covalent modification of K-Ras G12E” value on K-Ras G12E [1] is reported as 6.3%. Also, at K-Ras G12D [2], the “% covalent modification of K-Ras G12D” value amounted to 100%. Also, the “% covalent modification of wild type K-Ras” value at wild type K-Ras [3] is recorded as 0%. Further, the “interaction between Raf-RBD and K-Ras(G12D)” value in [4] is “disrupted Ras-RafRBD binding”.
`C#Cc1cccc2cccc(-c3ncc4c(N5C[C@H]6CC[C@@H](C5)N6C(=O)C5CC(=O)O5)nc(OCC56CCCN5CCC6)nc4c3F)c12` (mixture of isomers) [Compound 1]: the “ΔTm of K-Ras(G12D)·GDP on covalent modification” value at K-Ras G12D [5] (GDP state) was “+10.3 °C”. At K-Ras G12D [5] (GppNHp state), the “ΔTm of K-Ras(G12D)·GppNHp on covalent modification” value is “+2.5 °C”. Also, on K-Ras(G13D), the “modification of K-Ras(G13D)·GDP” value stood at 6.5±0.3%. Also, on K-Ras(G12S), the “covalent reaction with K-Ras(G12S)·GDP” value is listed as “did not react with K-Ras(G12S)·GDP”. For the same compound, the “interaction between Raf-RBD and wildtype K-Ras” value in assay [6] is “not wildtype K-Ras”. The “binding of the K-Ras(G12D)·GppNHp adduct to Raf-RBD” value in assay [7] is listed as “substantially decreased binding to Raf-RBD”. For the same compound, at K-Ras G12D [8], the “activity against GppNHp-bound K-Ras(G12D)” value was “also active against the GppNHp-bound K-Ras(G12D)” and the “time to full modification of K-Ras(G12D)·GDP” value is “less than 15 minutes”. On wild type K-Ras [9], the “modification of K-Ras(wildtype)·GDP” value is recorded as “no detectable modification”. Further, the “growth of KRAS G12D cancer cell lines” value in assay [10] was “inhibited growth of KRAS^G12D cancer cell lines”. The “reactivity with K-Ras(G12E)·GDP” value on K-Ras G12E [11] was “markedly reduced reactivity”. Besides, the “stability of the K-Ras(G12D) adduct over pH” value at K-Ras G12D [12] is reported as “stable over a range of pH (5.0-8.5)”. Further, the “stability of the K-Ras(G12D) adduct with DTT” value at K-Ras G12D [12] (1 mM DTT, 23° C.) is on record as “did not degrade in the presence of 1 mM DTT”. Moreover, the “interaction between Raf-RBD and K-Ras(G12D)” value in [4] was “inhibited the interaction between Raf-RBD and K-Ras(G12D)”.
For the compound `O=C1CCO1` [β-propiolactone], the “alkylation of Asp12 in peptide LVVVGAD*GVGK” value on K-Ras(G12D)·GDP is on record as “the mutant aspartate was covalently alkylated by a 2-carboxylethyl group”.
